# Where two headings read alike, the source gives them in different places.
# Test: First-in-human trial: pharmacokinetics in plasma and urine
# Type: in vivo
# Conditions: for AUC(0-inf) / Cmax / half-life / AUC(0-t): human, plasma, oral, median (range); for half-life: read-out: T1/2 (converted); for AUC(0-t): read-out: AUC24hr
# Protocol: Blood and urine samples were collected at prespecified time points for 24 h after initial dose and at days 2–3 (S2) and after multiple doses on days 3–4 (S1) and 22–23 (S3) across dose levels. Predose samples were collected on days 8, 15 and 22. Urine samples were collected during cycle 1.
# Descriptive statistics were used to summarise the safety data, including all patients who received at least one dose of OSI-027. All patients who completed the pharmacokinetic sampling were included in the PK analyses, which used descriptive statistics to summarise AUC0–∞, AUC0–t, Cmax, Clast, Tmax, Tlast, %AUC extrapolated, T1/2, clearance (Cl/F) and volume of distribution (Vz/F). Exploratory analysis were planned to correlate pharmacodynamics and pharmacokinetics. Response to treatment was evaluated according to Response Evaluation Criteria in Solid Tumors (RECIST) ([Therasse et al, 2000]).
# [1] = 5 mg, Schedule 3, 5 mg, Day 1, N=3
# [2] = 5 mg, Schedule 3, 5 mg, Day 22, N=3
# [3] = 10 mg, Schedule 1, 10 mg, Day 1, N=6
# [4] = 10 mg, Schedule 1, 10 mg, Day 3, N=6
# [5] = 10 mg, Schedule 3, 10 mg, Day 1, N=3
# [6] = 10 mg, Schedule 3, 10 mg, Day 22, N=3
# [7] = 15 mg, Schedule 1, 15 mg, Day 1, N=4
# [8] = 15 mg, Schedule 1, 15 mg, Day 3, N=4
# [9] = 20 mg, Schedule 1, 20 mg, Day 1, N=4
# [10] = 20 mg, Schedule 1, 20 mg, Day 3, N=4
# [11] = 20 mg, Schedule 3, 20 mg, Day 1, N=6
# [12] = 20 mg, Schedule 3, 20 mg, Day 22, N=5
# [13] = 25 mg, Schedule 3, 25 mg, Day 1, N=3
# [14] = 25 mg, Schedule 3, 25 mg, Day 22, N=3
# [15] = 30 mg, Schedule 1, 30 mg, Day 1, N=3
# [16] = 30 mg, Schedule 1, 30 mg, Day 3, N=3
# [17] = 35 mg, Schedule 3, 35 mg, Day 1, N=4
compound,measurement,setting,value
COc1cccc2cc(-c3nc([C@H]4CC[C@H](C(=O)O)CC4)n4ncnc(N)c34)[nH]c12 [OSI-027],accumulation,after once daily / continuous dosing,minimal accumulation
same,AUC(0-inf),[1],2140 ng·h/mL
same,Cmax,[1],236 ng/mL
same,half-life,[1],7.89 h
same,Cmax,[2],266 ng/mL
same,AUC(0-t),[2],2040 ng·h/mL
same,half-life,[2],6.85 h
same,AUC(0-inf),[3],5130 ng·h/mL
same,Cmax,[3],646 ng/mL
same,half-life,[3],5.98 h
same,Cmax,[4],602 ng/mL
same,AUC(0-t),[4],4860 ng·h/mL
same,half-life,[4],7.74 h
same,AUC(0-inf),"10 mg, Schedule 2, 10 mg, N=4",5530 ng·h/mL
same,Cmax,"10 mg, Schedule 2, 10 mg, N=4",705 ng/mL
same,half-life,"10 mg, Schedule 2, 10 mg, N=4",12.3 h
same,AUC(0-inf),[5],4300 ng·h/mL
same,Cmax,[5],547 ng/mL
same,half-life,[5],7.24 h
same,Cmax,[6],457 ng/mL
same,AUC(0-t),[6],3720 ng·h/mL
same,half-life,[6],6.54 h
same,AUC(0-inf),[7],8460 ng·h/mL
same,Cmax,[7],1170 ng/mL
same,half-life,[7],7.12 h
same,Cmax,[8],1270 ng/mL
same,AUC(0-t),[8],9210 ng·h/mL
same,half-life,[8],7.69 h
same,AUC(0-inf),"15 mg, Schedule 2, 15 mg, N=7",25900 ng·h/mL
same,Cmax,"15 mg, Schedule 2, 15 mg, N=7",894 ng/mL
same,half-life,"15 mg, Schedule 2, 15 mg, N=7",19.3 h
same,AUC(0-inf),[9],5780 ng·h/mL
same,Cmax,[9],804 ng/mL
same,half-life,[9],5.09 h
same,Cmax,[10],1350 ng/mL
same,AUC(0-t),[10],5850 ng·h/mL
same,half-life,[10],5.97 h
same,AUC(0-inf),"20 mg, Schedule 2, 20 mg, N=3",9840 ng·h/mL
same,Cmax,"20 mg, Schedule 2, 20 mg, N=3",1240 ng/mL
same,half-life,"20 mg, Schedule 2, 20 mg, N=3",7.65 h
same,AUC(0-inf),[11],9460 ng·h/mL
same,Cmax,[11],1300 ng/mL
same,half-life,[11],7.03 h
same,Cmax,[12],1540 ng/mL
same,AUC(0-t),[12],13700 ng·h/mL
same,half-life,[12],9.67 h
same,AUC(0-inf),[13],25100 ng·h/mL
same,Cmax,[13],1640 ng/mL
same,half-life,[13],11.1 h
same,Cmax,[14],1790 ng/mL
same,AUC(0-t),[14],15200 ng·h/mL
same,half-life,[14],15 h
same,AUC(0-inf),[15],45100 ng·h/mL
same,Cmax,[15],3620 ng/mL
same,half-life,[15],11.3 h
same,Cmax,[16],2120 ng/mL
same,AUC(0-t),[16],37800 ng·h/mL
same,half-life,[16],10 h
same,AUC(0-inf),[17],20200 ng·h/mL
same,Cmax,[17],1590 ng/mL
same,half-life,[17],7.24 h
